The structures appear in SMILES notation.

In this assay the test system is PC-3 cells. Put plainly: PC-3 Oxygen Rate Consumption (OCR) Assay. In kind it is cell-based. The note with it: Homo sapiens, 0.05 h, medium with 2% FBS, OCR at 3-min post-injection normalized to % increase over DMSO-treated cells, concentration for half-maximal OCR increase, read-out: EC50-PC3-OCR-FBS-3min. Summed up:
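PC-3 cells seeded a day before, equilibrated 1 h in XF medium with 10 mM glucose, 1 mM pyruvate, 2% FBS, non-CO2 at 37 °C. Compound injected after basal OCR reads; OCR at 3 min post-injection normalized as % increase over DMSO, EC50 = half-maximal increase; six replicates.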
What is called EC50 is the concentration that produces a half-maximal response. As to `Cc1ncsc1CCS(=O)(=O)Nc1ccc(C(F)(F)F)cc1C(=O)NC12CCC(F)(CC1)CC2` [Example 201, N-(4-fluorobicyclo[2.2.2]octan-1-yl)-2-((2-(4-methylthiazol-5-yl)ethyl)sulfonamido)-5-(trifluoromethyl)benzamide], the half-maximal effective concentration (EC50) worked out at 1.29 µM.

Consider `CS(=O)(=O)Nc1cc(SC(F)(F)F)ccc1C(=O)NC12CCC(C#N)(CC1)CC2` [Example 202, N-(4-cyanobicyclo[2.2.2]octan-1-yl)-2-(methylsulfonamido)-4-((trifluoromethyl)thio)benzamide], for which the EC50 is 9.32 µM.

In the case of `CS(=O)(=O)Nc1cc(OC(F)(F)F)ccc1C(=O)NC12CCC(C#N)(CC1)CC2` [Example 203, N-(4-cyanobicyclo[2.2.2]octan-1-yl)-2-(methylsulfonamido)-4-(trifluoromethoxy)benzamide], the EC50 was determined as 23 µM.

With `N#CC12CCC(NC(=O)c3cc(C(F)(F)F)ccc3NS(=O)(=O)C3CCOCC3)(CC1)CC2` [Example 204, N-(4-cyanobicyclo[2.2.2]octan-1-yl)-2-((tetrahydro-2H-pyran)-4-sulfonamido)-5-(trifluoromethyl)benzamide], the concentration for a half-maximal effect (EC50) is 15.7 µM.

Take `CN(C)S(=O)(=O)Nc1ccc(S(F)(F)(F)(F)F)cc1C(=O)NC12CCC(C#N)(CC1)CC2` [Example 205, N-(4-cyanobicyclo[2.2.2]octan-1-yl)-2-((N,N-dimethylsulfamoyl)amino)-5-(pentafluoro-λ^6-sulfanyl)benzamide]: the EC50 was determined as 1.21 µM.

As to `N#CC12CCC(NC(=O)c3cc(S(F)(F)(F)(F)F)ccc3NS(=O)(=O)N3CCOCC3)(CC1)CC2` [Example 206, N-(4-cyanobicyclo[2.2.2]octan-1-yl)-2-(morpholine-4-sulfonamido)-5-(pentafluoro-λ^6-sulfanyl)benzamide], the concentration for a half-maximal effect (EC50) worked out at 2.71 µM.

With `O=C(NC12CCC(C(F)(F)F)(CC1)CC2)c1cc(Cl)ccc1NS(=O)(=O)C1CCS(=O)(=O)CC1` [Example 207, 5-chloro-2-((1,1-dioxidotetrahydro-2H-thiopyran)-4-sulfonamido)-N-(4-(trifluoromethyl)bicyclo[2.2.2]octan-1-yl)benzamide], the EC50 worked out at 8.12 µM.

Consider `CS(=O)(=O)Nc1ccc(Cl)cc1C(=O)NC12CCC(C(F)(F)F)(CC1)CC2` [Example 208, 5-chloro-2-(methylsulfonamido)-N-(4-(trifluoromethyl)bicyclo[2.2.2]octan-1-yl)benzamide], for which the EC50 was 10.6 µM.

`N#CC1(S(=O)(=O)Nc2ccc(Cl)cc2C(=O)NC23CCC(C(F)(F)F)(CC2)CC3)CC1` [Example 209, 5-chloro-2-((1-cyanocyclopropane)-1-sulfonamido)-N-(4-(trifluoromethyl)bicyclo[2.2.2]octan-1-yl)benzamide]: the EC50 worked out at 0.648 µM.

Regarding `O=C(NC12CCC(C(F)(F)F)(CC1)CC2)c1cc(OC(F)(F)F)ccc1NS(=O)(=O)C1CCS(=O)(=O)CC1` [Example 210, 2-((1,1-dioxidotetrahydro-2H-thiopyran)-4-sulfonamido)-5-(trifluoromethoxy)-N-(4-(trifluoromethyl)bicyclo[2.2.2]octan-1-yl)benzamide], the concentration for a half-maximal effect (EC50) was 4.35 µM.

In the case of `N#CC12CCC(NC(=O)c3cc(Cl)ccc3NS(=O)(=O)C3(C#N)CC3)(CC1)CC2` [Example 211, 5-chloro-N-(4-cyanobicyclo[2.2.2]octan-1-yl)-2-((1-cyanocyclopropane)-1-sulfonamido)benzamide], the EC50 is 15.4 µM.

Take `CS(=O)(=O)Nc1ccc(C(F)(F)F)cc1C(=O)NC12CC(C1)C2` [Example 212, N-(bicyclo[1.1.1]pentan-1-yl)-2-(methylsulfonamido)-5-(trifluoromethyl)benzamide]: the 50% effective concentration (EC50) was found to be 8.62 µM.

On to `CS(=O)(=O)Nc1ccc(Cl)cc1C(=O)NC12CCC(C#N)(CC1)CC2` [Example 213, 5-chloro-N-(4-cyanobicyclo[2.2.2]octan-1-yl)-2-(methylsulfonamido)benzamide], for which the half-maximal effective concentration (EC50) stood at 81.9 µM.

For `CS(=O)(=O)Nc1cc(Cl)ccc1C(=O)NC12CCC(C#N)(CC1)CC2` [Example 214, 4-chloro-N-(4-cyanobicyclo[2.2.2]octan-1-yl)-2-(methylsulfonamido)benzamide], the EC50 turned out to be 26.3 µM.

Turning to `CS(=O)(=O)Nc1cc(F)c(F)cc1C(=O)NC12CCC(C#N)(CC1)CC2` [Example 215, N-(4-cyanobicyclo[2.2.2]octan-1-yl)-4,5-difluoro-2-(methylsulfonamido)benzamide], the 50% effective concentration (EC50) was determined as 21.4 µM.

`CCS(=O)(=O)Nc1cc(F)c(F)cc1C(=O)NC12CCC(C#N)(CC1)CC2` [Example 216, N-(4-cyanobicyclo[2.2.2]octan-1-yl)-4,5-difluoro-2-(ethylsulfonamido)benzamide]: the EC50 stood at 16.9 µM.

For `CS(=O)(=O)N1C2CCC1CC(NC(=O)c1ccc(F)cc1NS(=O)(=O)CCC(F)(F)F)C2` (stereo not drawn) [Example 217, 4-fluoro-N-(8-(methylsulfonyl)-8-azabicyclo[3.2.1]octan-3-yl)-2-((3,3,3-trifluoropropyl)sulfonamido)benzamide], the EC50 stood at 112 µM.

Turning to `CS(=O)(=O)N1C2CCC1CC(NC(=O)c1ccc(Cl)cc1NS(=O)(=O)CCC(F)(F)F)C2` (stereo not drawn) [Example 218, 4-chloro-N-(8-(methylsulfonyl)-8-azabicyclo[3.2.1]octan-3-yl)-2-((3,3,3-trifluoropropyl)sulfonamido)benzamide], the EC50 came to 53.4 µM.

`CS(=O)(=O)Nc1c(C(=O)NC23CCC(C#N)(CC2)CC3)ccc2ccccc12` [Example 219, N-(4-cyanobicyclo[2.2.2]octan-1-yl)-1-(methylsulfonamido)-2-naphthamide]: the EC50 is at least 200 µM.

Consider `N#CC12CCC(NC(=O)c3cc(F)ccc3NS(=O)(=O)CCC(F)(F)F)(CC1)CC2` [Example 220, N-(4-cyanobicyclo[2.2.2]octan-1-yl)-5-fluoro-2-((3,3,3-trifluoropropyl)sulfonamido)benzamide], for which the EC50 worked out at 5.09 µM.

As for `N#CC12CCC(NC(=O)c3cc(Cl)ccc3NS(=O)(=O)CCC(F)(F)F)(CC1)CC2` [Example 221, 5-chloro-N-(4-cyanobicyclo[2.2.2]octan-1-yl)-2-((3,3,3-trifluoropropyl)sulfonamido)benzamide], the EC50 is 1.09 µM.

As for `N#CC12CCC(NC(=O)c3cc(F)ccc3NS(=O)(=O)CCC(F)(F)F)(CC1)C2` [Example 222, N-(4-cyanobicyclo[2.2.1]heptan-1-yl)-5-fluoro-2-((3,3,3-trifluoropropyl)sulfonamido)benzamide], the half-maximal effective concentration (EC50) is 5.7 µM.

In the case of `N#CC12CCC(NC(=O)c3ccc(F)cc3NS(=O)(=O)CCC(F)(F)F)(CC1)C2` [Example 223, N-(4-cyanobicyclo[2.2.1]heptan-1-yl)-4-fluoro-2-((3,3,3-trifluoropropyl)sulfonamido)benzamide], the concentration for a half-maximal effect (EC50) came out at 4.43 µM.

Turning to `N#CC12CCC(NC(=O)c3cc(C(F)(F)F)ccc3NS(=O)(=O)N3CC(OC(F)F)C3)(CC1)CC2` [Example 224, N-(4-cyanobicyclo[2.2.2]octan-1-yl)-2-((3-(difluoromethoxy)azetidine)-1-sulfonamido)-5-(trifluoromethyl)benzamide], the EC50 worked out at 2.42 µM.

Take `COC1(C)CN(S(=O)(=O)Nc2ccc(C(F)(F)F)cc2C(=O)NC23CCC(C#N)(CC2)CC3)C1` [Example 225, N-(4-cyanobicyclo[2.2.2]octan-1-yl)-2-((3-methoxy-3-methylazetidine)-1-sulfonamido)-5-(trifluoromethyl)benzamide]: the EC50 was 6.74 µM.

Turning to `N#CC12CCC(NC(=O)c3ccc(SC(F)(F)F)cc3NS(=O)(=O)C3(C#N)CC3)(CC1)CC2` [Example 226, N-(4-cyanobicyclo[2.2.2]octan-1-yl)-2-((1-cyanocyclopropane)-1-sulfonamido)-4-((trifluoromethyl)thio)benzamide], the EC50 turned out to be 7.1 µM.

Regarding `N#CC12CCC(NC(=O)c3cc(C(F)(F)F)ccc3NS(=O)(=O)N3CC(OC(F)(F)F)C3)(CC1)CC2` [Example 227, N-(4-cyanobicyclo[2.2.2]octan-1-yl)-2-((3-(trifluoromethoxy)azetidine)-1-sulfonamido)-5-(trifluoromethyl)benzamide], the EC50 came to 1.45 µM.

Consider `N#CCCS(=O)(=O)Nc1ccc(Cl)cc1C(=O)NC12CC(C(F)(F)F)(C1)C2` [Example 228, 5-chloro-2-((2-cyanoethyl)sulfonamido)-N-(3-(trifluoromethyl)bicyclo[1.1.1]pentan-1-yl)benzamide], for which the half-maximal effective concentration (EC50) came out at 3.37 µM.

Regarding `CS(=O)(=O)Nc1ccc(C#N)cc1C(=O)NC12CCC(C(F)(F)F)(CC1)CC2` [Example 229, 5-cyano-2-(methylsulfonamido)-N-(4-(trifluoromethyl)bicyclo[2.2.2]octan-1-yl)benzamide], the half-maximal effective concentration (EC50) came out at 4.42 µM.

Take `O=C(NC12CCC(C(F)(F)F)(CC1)CC2)c1ccc(C(F)(F)F)cc1NS(=O)(=O)C1CCS(=O)(=O)CC1` [Example 230, 2-((1,1-dioxidotetrahydro-2H-thiopyran)-4-sulfonamido)-4-(trifluoromethyl)-N-(4-(trifluoromethyl)bicyclo[2.2.2]octan-1-yl)benzamide]: the 50% effective concentration (EC50) was 5.59 µM.

`O=C(NC12CCC(C(F)(F)F)(CC1)CC2)c1ccc(F)cc1NS(=O)(=O)N1CCS(=O)(=O)CC1` [Example 231, 2-((1,1-dioxidothiomorpholine)-4-sulfonamido)-4-fluoro-N-(4-(trifluoromethyl)bicyclo[2.2.2]octan-1-yl)benzamide]: the 50% effective concentration (EC50) is 4.69 µM.

Turning to `N#CC1CC2(C1)CN(S(=O)(=O)Nc1cc(F)c(F)cc1C(=O)NC13CC(C(F)(F)F)(C1)C3)C2` [Example 232, 2-((6-cyano-2-azaspiro[3.3]heptane)-2-sulfonamido)-4,5-difluoro-N-(3-(trifluoromethyl)bicyclo[1.1.1]pentan-1-yl)benzamide], the EC50 came to 5.58 µM.

Turning to `N#CC1CCN(S(=O)(=O)Nc2ccc(C(F)(F)F)cc2C(=O)NC23CCC(C#N)(CC2)CC3)CC1` [Example 233, N-(4-cyanobicyclo[2.2.2]octan-1-yl)-2-((4-cyanopiperidine)-1-sulfonamido)-5-(trifluoromethyl)benzamide], the half-maximal effective concentration (EC50) was determined as 4.79 µM.

The record behind these values is US12049439B2 (OrsoBio, Inc., priority 2018, dated 2024).
